Data reported in US4241184A, “Secondary alcohol dehydrogenase enzyme and use thereof” (priority 1979, dated 1980).
Read-outs that look alike come from different tables or passages of the source.

Columns and labels:
[1] = test system: P(40) particulate fraction of Methylosinus sp. (CRL-15, NRRL B-11,202); experiment: Effect of inhibitors on propylene epoxidation and methane hydroxylation by P(40) fraction; type: biochemical; details: inhibitor 10^-3 M
Protocol: The oxidation of methane and propylene by particulate [(P)40 and(P)80] fractions and soluble [S(80)] fraction was measured at 30° C. by estimating the production of methanol and propylene oxide, respectively. The reaction mixtures contained in 1.0 ml: 150 mM potassium phosphate buffer, pH 7.0 containing 5 mM MgCl2, 0.6 ml; 10 μmoles NADH, and cellular fraction.
Reaction mixtures were contained in 10 ml vials at 4° C. Vials were sealed with rubber caps. The gaseous phase in the vials was removed using vacuum and then was replaced with a gas mixture of methane or propylene and oxygen at a 1:1, v/v ratio. Oxidation of other gaseous n-alkanes and n-alkenes was examined as described above. For liquid substrates, 10 μl of substrate was used directly. Vials were then incubated at 30° C. on a rotary shaker at 200 RPM.
It has been reported that the oxidation of methane by cell suspensions of methane-utilizing bacteria was inhibited by various metal-binding or metal-chelating agents (Patel et al., J. Bacteriol. 126: 1017-1019 (1976)). […] (CRL-15, NRRL B-11,202) was examined.

[2] = test system: secondary alcohol dehydrogenase (SADH); experiment: Purified secondary alcohol dehydrogenase activity (formation of reduced NAD); type: biochemical, Pseudomonas sp. ATCC 21439
Protocol: Secondary alcohol dehydrogenase (SADH) from an obligate methanol utilizer, Pseudomonas sp. ATCC 21439 was purified as follows. […] 0.05 M sodium phosphate buffer, pH 7.0 with 0.5 mM dithiothretol (buffer A) and were disrupted sonically (5×1 min.). The crude extract was separated by centrifugation. The crude extract was heat-treated at 50° C. in a water bath for 10 minutes. The resulting precipitate was removed by centrifugation. To the supernatant solution, 25 ml of protamine sulfate solution (2% solution in 0.1 M Tris base) was added dropwise with continuous stirring. After standing for 30 minutes, the extract was centrifuged. The supernatant solution was fractionated with solid ammonium sulfate. The material precipitating between 30 and 60% saturation was collected and was dialized overnight against buffer A. The The dialized material was applied to a DEAE-cellulose column (3 cm by 35 cm) that had been equilibrated with buffer A. The secondary alcohol dehydrogenase activity was eluted in the void volume. This DEAE-cellulose eluate was concentrated by ammonium sulfate fractionation. Material precipitating between 30 and 50% ammonium sulfate saturation was collected by centrifugation and dialyzed overnight against A. This fraction was further washed and filtered through an Amicon unit with XM 50 membrane. The concentrated fraction (6 ml) inside the Amicon unit was applied to an Affi-Gel Blue column (0.8 cm×18 cm) which had been equilibrated with buffer A for affinity chromatography. The column was washed overnight with buffer A (0.18 ml./min.) and then was eluted with buffer A containing 5 mM NAD. Each 1 ml. fraction was collected.
The purified secondary alcohol dehydrogenase enzyme (SADH) may be used directly for converting C3 -C6 secondary alcohols to the corresponding methyl ketones by the procedures described above; however, a source of NAD^+ must be added to the reaction medium. One can determine the NAD-linked secondary alcohol dehydrogenase activity with a fluorescence spectrophotometer (Perkin Elmer, Model MPF 44A) by following the formation of reduced NAD (Ex 340 nm, Em 460 nm). The assay system (3 ml.) will typically contain: sodium phosphate buffer pH 7.0, 150 μmol; NAD 1.0 μmol; a given amount of enzyme preparation; and 20 μmol secondary alcohol. The reaction is started by the addition of secondary alcohol. One unit of SADH enzyme activity represents the reduction of one nmole NAD per minute.
The effect of metal-chelating agents and thioreagents on the activity of the purified SADH enzyme were studied. […] The possibility of ethanol or n-propanol as an inhibitor was studied.

[3] = test system: cell-free particulate fractions derived from the methylotrophic microorganisms; experiment: Conversion of C3-C6 n-alkanes to sec. alcohols by cell-free particulate fractions: inhibitors and electron donors; type: biochemical
Source text: The conditions for preparing the cell suspensions or the cell-free particulate fractions from methane-grown methylotroph microorganisms is the same as described above. […] Tables XXV and XXVI show the conversion of C3 -C6 n-alkanes to the corresponding secondary alcohols using cell suspensions and cell-free particulate fractions, respectively, of methane-grown methylotroph microorganisms.

[4] = test system: methanol-grown Methylococcus capsulatus CRL M1 (NRRL B-11,219); experiment: Effect of metal-chelating agents and other inhibitors on production of 2-butanone by cell suspensions; type: cell-based
[5] = test system: secondary alcohol dehydrogenase; experiment: Purified yeast secondary alcohol dehydrogenase: substrates, electron acceptors, inhibitors, stoichiometry; type: biochemical, Pichia sp. NRRL Y-11,328
Protocol: Large scale cultures of Pichia sp. NRRL Y-11,328 were grown with aeration at 30° C. in a 14-liter New Brunswick f fermentor in a mineral salt medium containing methanol (0.4%, v/v) as the sole carbon source. The cells (200 g., wet weight) were suspended in […] sodium phosphate buffer, pH 7.0, containing 1 mM dithiothreitol (buffer A), and crude extracts were prepared as described previously. To the crude extracts, 18 ml. of protamine sulfate solution [2% solution in 0.1 M tris (hydroxymethyl) aminomethane (tris) base] was added dropwise with continuous stirring. After standing for 30 min., the extracts were centrifuged at 20,000×g. for 60 min. The supernatant solution was fractionated with solid ammonium sulfate. Extracts were brought to 50% of saturation with respect to ammonium sulfate by addition of 313 g. of the salt per liter of extract. Precipitated proteins was removed by centrifugation, and 137 g. of ammonium sulfate was added per liter of the supernatant liquid to bring it to 70% of saturation. Material precipitating between 50 and 70% of saturation was collected by centrifugation and dissolved in buffer A. This preparation was dialyzed overnight against buffer A, and the dialyzed material was applied to a DEAE-cellulose column (5×40 cm) that had been equilibrated with buffer A. The sample was washed with 200 ml. of buffer A and eluted with 2 liters of buffer A that contained NaCl in a linear gradient running from a concentration of 0 to 0.5 M. Fractions of 15 ml. were collected. Fractions containing secondary alcohol dehydrogenase activity were pooled and were termed DEAE-cellulose eluate. The DEAE-cellulose eluate was concentrated by ammonium sulfate fractionation.
Secondary alcohol dehydrogenase activity was measured spectrophotometrically at 340 nm with a NAD^+ as an electron acceptor. The reaction mixture, in a total 3.0 ml., contained 50 mM phosphate buffer, pH 8.0, 5μ moles NAD^+, crude extracts, and subtrate. The reactions were started by addition of 100 μl of 0.1 M substrate and the rate of NAD^+ reduction was measured. Protein concentration was determined by the method of Lowry et al.
The substrate specificity of the purified secondary alcohol dehydrogenase was examined spectrophotometrically.

[6] = test system: Methylosinus trichosporium OB3b (NRRL B-11,196); experiment: Effect of inhibitors on epoxidation of propylene and hydroxylation of methane, cell-containing enzyme preparation; type: cell-based
[7] = test system: cell suspensions of C1 -utilizers; experiment: Optimal conditions and inhibition of 2-butanone production from 2-butanol by cell suspensions; type: cell-based
Source text: The following summarizes tests conducted on the optimal conditions for the production of methyl ketones from C3 -C6 sec. alcohols.

[8] = test system: Methylococcus capsulatus (CRL Ml, NRRL B-11,219); experiment: Effect of inhibitors on epoxidation of propylene and hydroxylation of methane, cell-containing enzyme preparation; type: cell-based; details: for inhibition at 1000 µM: Methylococcus capsulatus
[9] = test system: Methylobacterium organophilum (CRL 26, NRRL B-11,222); experiment: as above; type: cell-based
[10] = test system: cell-free extracts of strain ATCC-21439
Protocol: The reaction mixtures 3 ml (1.0 mg protein) were incubated at 30°
C. for 10 min. (exp. 1) and for 20 min. (exp. 2) in the presence of 1.0
^a Determined gas chromatographically.
^b Determined fluorescence spectrophotometrically. Endogenous
consumption of NAD was corrected.

[11] = test system: Methylobacter vinelandii (CRL M5Y NRRL B-11,218); experiment: Microbiological oxidation of cyclic hydrocarbons by methane-grown washed cells; type: cell-based
Source text: Methylobacter vinelandii (CRL M5Y NRRL B-11,218) was aerobically grown in a methane-containing nutrient medium in the manner described in Example 1 and the methane-grown washed cells were contacted under aerobic conditions with cyclohexane, benzene and toluene.

[12] = test system: P(40) particulate fraction of Methylosinus sp. (CRL-15, NRRL B-11,202); experiment: Oxidation of n-alkenes and n-alkanes by P(40) particulate fraction; type: biochemical
[13] = test system: P(40) particulate fraction of Methylosinus sp. (CRL-15, NRRL B-11,202); experiment: Stoichiometry of propylene epoxidation and methane hydroxylation by P(40) fraction; type: biochemical; details: 5.0 μmoles substrate
Protocol: The particulate P(40) fraction of Methylosinus sp. (CRL-15, NRRL B-11,202) was used to determine the stoichiometry of hydroxylation and epoxidation reactions. The stoichiometry of methane or propylene-dependant NADH oxidation, oxygen consumption and product formation was approximately 1:1:1 Table XIV. This is consistent with methane or propylene oxygenation being catalyzed by a mono-oxygenase.
^a Under identical condition of reaction, the estimation of NADH
oxidized was carried out spectrophotometrically, the estimation of oxygen
consumed was measured polarographically, and estimation of product formed
was carried out by gas chromatography.

[14] = purified SADH, each inhibitor 1 mM, measured spectrofluorometrically
[15] = NRRLB11, read-out: Inhibition (%) of production of 2-butanone, 1 mM
[16] = NRRLB11, inhibitor 1 mM, 1 hour at 30° C., read-out: % Inhibition, Epoxidation
[17] = NRRLB11, inhibitor 1 mM, 1 hour at 30° C., read-out: % Inhibition, Hydroxylation
[18] = NRRLB11, read-out: Inhibition (%) of production of 2-butanone
[19] = NRRLB11, 1 h, read-out: % Inhibition, Epoxidation
[20] = NRRLB11, 1 h, read-out: % Inhibition, Hydroxylation

c1cnc2c(c1)ccc1cccnc12 [1,10-Phenanthroline]
% Inhibition, Methane-Hydroxylating Activity [1]: 90%
% Inhibition, Propylene-Epoxidizing Activity [1]: 93%
% inhibition of SADH activity [2, 14]: 95%
inhibition of the conversion of the n-alkanes to the sec. alcohols [3]: inhibited
inhibition at 1000 µM [4, 15]: 95%
inhibition of secondary alcohol dehydrogenase activity [5]: strongly inhibited
inhibition at 1000 µM [6, 16]: 90%
inhibition at 1000 µM [6, 17]: 92%
inhibition of production of 2-butanone from 2-butanol by cell suspensions of the strains tested [7]: inhibited
inhibition at 1000 µM [8, 16]: 95%
inhibition at 1000 µM [8, 17]: 95%
inhibition at 1000 µM [9, 16]: 90%
inhibition at 1000 µM [9, 17]: 90%

CCC(C)O (centres unmarked) [2-butanol]
substrate specificity of purified SADH [2]: highest
Km ([2]; read-out: Km values): 250 µM
NAD^+ Reduced [5]: 5.9 µmol
Product formed [5]: 5.7 µmol
oxidation by the purified secondary alcohol dehydrogenase [5]: catalyzed the oxidation
2-Butanol Consumed ([10]; experiment 1, 10 min.): 260 nmol
2-Butanol Consumed ([10]; experiment 2, 20 min.): 530 nmol
NAD Consumed ([10]; experiment 2, 20 min.): 540 nmol

CCC(C)=O [2-butanone]
inhibition of SADH activity by the product [2]: inhibited
product inhibition of 2-butanone production ([7]; 8 μmoles 2-butanone added to viable cell suspensions): no product inhibition

C1CCCCC1 [Cyclohexane]
oxidative conversion rate of cyclic hydrocarbon (cyclohexane to cyclohexanol) [11]: 1.5 μmoles/2 hr./mg. protein

O=C(O)CN(CCN(CC(=O)O)CC(=O)O)CC(=O)O [EDTA]
% inhibition of SADH activity [2]: 63%
inhibition at 1000 µM [4, 18]: 70%

C [Methane]
Propylene Oxide Produced ([12]; substrate competition, gas phase as labelled): 0 μmoles/hr/mg. protein
Rate of Product Formation ([12]; substrate oxidized to its epoxide or alcohol, 30° C.): 4.8 μ moles/hr/mg of protein
NADH Oxidized [13]: 4.8 µmol
O2 Consumed [13]: 4.6 µmol
Product formed [13]: 4.2 µmol
inhibition of epoxidation of propylene to propylene oxide in the presence of methane ([8]; cell suspension of methane-grown strain): 50%

[N-]=[N+]=[N-] [Sodium azide]
% inhibition of SADH activity [2, 14]: 10%
inhibition at 1000 µM [4, 18]: 10%

NC(N)=S [Thiourea]
% Inhibition, Methane-Hydroxylating Activity [1]: 98%
% Inhibition, Propylene-Epoxidizing Activity [1]: 98%
inhibition of the conversion of the n-alkanes to the sec. alcohols [3]: inhibited
inhibition at 1000 µM [4, 15]: 0%
inhibition at 1000 µM [6, 19]: 100%
inhibition at 1000 µM [6, 20]: 100%
inhibition of production of 2-butanone from 2-butanol by cell suspensions of the strains tested [7]: not inhibited
inhibition at 1000 µM [8, 19]: 100%
inhibition at 1000 µM [8, 20]: 100%
inhibition at 1000 µM [9, 19]: 100%
inhibition at 1000 µM [9, 20]: 100%

c1ccccc1 [benzene]
oxidative conversion rate of cyclic hydrocarbon (cyclohexane to cyclohexanol) [11]: no oxidative conversion was detected

Cc1ccccc1 [toluene]
oxidative conversion rate of cyclic hydrocarbon (cyclohexane to cyclohexanol) [11]: no oxidative conversion was detected

c1ccc(-c2ccccn2)nc1 [α,α -Bipyridyl, α,α-bipyridyl]
% Inhibition, Methane-Hydroxylating Activity [1]: 99%
% Inhibition, Propylene-Epoxidizing Activity [1]: 98%
% inhibition of SADH activity [2, 14]: 70%
inhibition of the conversion of the n-alkanes to the sec. alcohols [3]: inhibited
inhibition at 1000 µM [4, 15]: 75%
inhibition at 1000 µM [6, 19]: 100%
inhibition at 1000 µM [6, 20]: 90%
inhibition of production of 2-butanone from 2-butanol by cell suspensions of the strains tested [7]: inhibited
inhibition at 1000 µM [8, 19]: 100%
inhibition at 1000 µM [8, 20]: 100%
inhibition at 1000 µM [9, 19]: 100%
inhibition at 1000 µM [9, 20]: 100%
